Laboratory results reported in the NIST ThermoML archive (doi:10.1016/j.jct.2014.02.024).

Assay: mn = molality of the nth substance listed, in mol/kg
Details: 101.3 kPa, Liquid; for viscosity: Capillary tube (Ostwald / Ubbelohde) method; for mass density: Pycnometric method

O=C(O)c1cccnc1 [3-carboxylpyridine] + O
Details	mass density [kg/m3]	viscosity [mPa·s]
275.15 K, m1 = 0.0098	1000.41	1.675
275.15 K, m1 = 0.0199	1000.84	1.685
275.15 K, m1 = 0.023	1000.96	1.687
275.15 K, m1 = 0.0249	1001.1	1.687
275.15 K, m1 = 0.0299	1001.29	1.691
275.15 K, m1 = 0.0349	1001.51	1.686
275.15 K, m1 = 0.0402	1001.76	1.691
275.15 K, m1 = 0.0429	1001.91	1.693
275.15 K, m1 = 0.0453	1002.02	1.694
275.15 K, m1 = 0.0497	1002.2	1.69
275.15 K, m1 = 0.055	1002.46	1.7
275.15 K, m1 = 0.06	1002.7	1.702
275.15 K, m1 = 0.0646	1002.87	1.704
275.15 K, m1 = 0.0701	1003.17	1.706
275.15 K, m1 = 0.0801	1003.54	1.715
277.15 K, m1 = 0.0094	1000.39	1.572
277.15 K, m1 = 0.0201	1000.87	1.574
277.15 K, m1 = 0.0231	1000.98	1.574
277.15 K, m1 = 0.025	1001.1	1.576
277.15 K, m1 = 0.0296	1001.29	1.577
277.15 K, m1 = 0.0399	1001.69	1.58
277.15 K, m1 = 0.043	1001.86	1.582
277.15 K, m1 = 0.0451	1001.97	1.583
277.15 K, m1 = 0.0499	1002.23	1.586
277.15 K, m1 = 0.055	1002.34	1.586
277.15 K, m1 = 0.06	1002.64	1.587
277.15 K, m1 = 0.0631	1002.69	1.591
277.15 K, m1 = 0.065	1002.84	1.591
277.15 K, m1 = 0.0705	1003.13	1.592
279.15 K, m1 = 0.0103	1000.39	1.474
279.15 K, m1 = 0.0198	1000.79	1.479
279.15 K, m1 = 0.0229	1000.95	1.485
279.15 K, m1 = 0.03	1001.23	1.489
279.15 K, m1 = 0.0351	1001.46	1.49
279.15 K, m1 = 0.04	1001.74	1.495
279.15 K, m1 = 0.0431	1001.79	1.494
279.15 K, m1 = 0.0454	1001.94	1.496
279.15 K, m1 = 0.0501	1002.16	1.499
279.15 K, m1 = 0.0551	1002.39	1.503
279.15 K, m1 = 0.06	1002.54	1.5
279.15 K, m1 = 0.0631	1002.68	1.502
279.15 K, m1 = 0.065	1002.79	1.503
279.15 K, m1 = 0.0701	1003.04	1.509
